Laboratory results as given in patent publication US10251395B2, “Substituted furano-/thienocycloalkylamino-2-pyrimidine derivatives and use thereof for controlling undesired plant growth” (Bayer CropScience Aktiengesellschaft, priority 2015, dated 2019).

How the values were obtained:
Alopecurus myosuroides = assay: Pre-emergence herbicidal effect; type: in vivo; conditions: scored visually after 3 weeks
Summary of the method: (§1)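 Pre-em soil-surface spray; sandy loam, seeds covered with soil. WP/EC, aq. suspension/emulsion, 600–800 L/ha, +0.2% wetting agent. GH 3 wk; visual % activity vs untreated (100% = dead).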

Amaranthus retroflexus [1] = assay: Pre-emergence herbicidal effect; type: in vivo; conditions: scored visually after 3 weeks
Summary of the method: as §1

Matricaria inodora [2] = assay: Pre-emergence herbicidal effect; type: in vivo; conditions: scored visually after 3 weeks
Summary of the method: as §1

Polygonum convolvulus [3] = assay: Pre-emergence herbicidal effect; type: in vivo; conditions: scored visually after 3 weeks
Summary of the method: as §1

Setaria viridis = assay: Pre-emergence herbicidal effect; type: in vivo; conditions: Dosage 320 g/ha, scored visually after 3 weeks
Summary of the method: as §1

Stellaria media [4] = assay: Pre-emergence herbicidal effect; type: in vivo; conditions: scored visually after 3 weeks
Summary of the method: as §1

Veronica persica [5] = assay: Pre-emergence herbicidal effect; type: in vivo; conditions: scored visually after 3 weeks
Summary of the method: as §1

Viola tricolor [6] = assay: Pre-emergence herbicidal effect; type: in vivo; conditions: scored visually after 3 weeks
Summary of the method: as §1

logP (HCOOH) = type: physicochemical; conditions: for chromatographic logP: HCOOH (formic acid)
Source text: Table 2 (physicochemical characterization of selected synthesis examples)

Echinochloa crus-galli [7] = assay: Pre-emergence herbicidal effect; type: in vivo; conditions: Dosage 320 g/ha, scored visually after 3 weeks
Summary of the method: as §1

Lolium multiflorum = assay: Pre-emergence herbicidal effect; type: in vivo; conditions: Dosage 320 g/ha, scored visually after 3 weeks
Summary of the method: as §1

Matricaria inodora [8] = assay: Post-emergence herbicidal effect; type: in vivo; conditions: 320 g/ha, assessed visually after about 3 weeks vs untreated controls
Summary of the method: (§2)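 Seedlings at the one-leaf stage, about 2 to 3 weeks old, are sprayed on their foliage with compound suspended or emulsified in water containing 0.2% wetting agent. After roughly 3 weeks in the greenhouse, injury is estimated visually on a 0 to 100% scale.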

Viola tricolor [9] = assay: Post-emergence herbicidal effect; type: in vivo; conditions: assessed visually after about 3 weeks vs untreated controls
Summary of the method: as §2

Abutilon theophrasti [10] = assay: Pre-emergence herbicidal effect; type: in vivo; conditions: Dosage 320 g/ha, scored visually after 3 weeks
Summary of the method: as §1

Abutilon theophrasti [11] = assay: Post-emergence herbicidal effect; type: in vivo; conditions: 320 g/ha, assessed visually after about 3 weeks vs untreated controls
Summary of the method: as §2

Amaranthus retroflexus [12] = assay: Post-emergence herbicidal effect; type: in vivo; conditions: assessed visually after about 3 weeks vs untreated controls
Summary of the method: as §2

Echinochloa crus-galli [13] = assay: Post-emergence herbicidal effect; type: in vivo; conditions: 320 g/ha, assessed visually after about 3 weeks vs untreated controls
Summary of the method: as §2

Polygonum convolvulus [14] = assay: Post-emergence herbicidal effect; type: in vivo; conditions: 320 g/ha, assessed visually after about 3 weeks vs untreated controls
Summary of the method: as §2

Stellaria media [15] = assay: Post-emergence herbicidal effect; type: in vivo; conditions: 320 g/ha, assessed visually after about 3 weeks vs untreated controls
Summary of the method: as §2

Veronica persica [16] = assay: Post-emergence herbicidal effect; type: in vivo; conditions: assessed visually after about 3 weeks vs untreated controls
Summary of the method: as §2

Ipomoea purpurea = assay: Post-emergence herbicidal effect; type: in vivo; conditions: 320 g/ha, assessed visually after about 3 weeks vs untreated controls
Summary of the method: as §2

Compound	ALOMY pre-emergence efficacy (herbicidal activity) (Alopecurus myosuroides; Dosage 320 g/ha) [%]	AMARE pre-emergence efficacy (herbicidal activity) (Amaranthus retroflexus [1]; Dosage 320 g/ha) [%]	MATIN pre-emergence efficacy (herbicidal activity) (Matricaria inodora [2]; Dosage 320 g/ha) [%]	POLCO pre-emergence efficacy (herbicidal activity) (Polygonum convolvulus [3]; Dosage 320 g/ha) [%]	SETVI pre-emergence efficacy (herbicidal activity) (Setaria viridis) [%]	STEME pre-emergence efficacy (herbicidal activity) (Stellaria media [4]; Dosage 320 g/ha) [%]	VERPE pre-emergence efficacy (herbicidal activity) (Veronica persica [5]; Dosage 320 g/ha) [%]	VIOTR pre-emergence efficacy (herbicidal activity) (Viola tricolor [6]; Dosage 320 g/ha) [%]	logP (HCOOH) (logP (HCOOH))	ECHCG pre-emergence efficacy (herbicidal activity) (Echinochloa crus-galli [7]) [%]	MATIN pre-emergence efficacy (herbicidal activity) (Matricaria inodora [2]; Dosage 80 g/ha) [%]	VIOTR pre-emergence efficacy (herbicidal activity) (Viola tricolor [6]; Dosage 80 g/ha) [%]	post-emergence efficacy VIOTR (Viola tricolor [9]; 80 g/ha) [%]	post-emergence efficacy VIOTR (Viola tricolor [9]; 320 g/ha) [%]	further results
Cc1cc2c(s1)CCCC2Nc1ncc(F)c(N)n1 (centres unmarked) [compound 12, 5-Fluoro-N2-(2-methyl-4,5,6,7-tetrahydro-1-benzothiophen-4-yl)pyrimidine-2,4-diamine]	90	90	90	80	90	100	100	100							chromatographic logP (logP (HCOOH)): 1.07
O=C1CCCc2nc(NC3CCCc4occc43)ncc21 (racemic) [compound 54]									oily; logP (HCOOH): 2.35; 1H NMR (CDCl3, 400 MHZ, δ in ppm): 1.80-2.00 (m, 4H,						
Cc1cc2c(s1)CCCC2Nc1ncc(S(=O)(=O)C(C)(C)C)c(N)n1 (racemic) [compound 76]									solid; logP (HCOOH): 3.01; 1H NMR (CDCl3, 400 MHZ, δ in ppm): ): 1.40 (s, 9H,						
CC(=O)c1cnc(N[C@@H]2CCCc3sccc32)nc1C [compound 71]									solid; logP (HCOOH): 2.98; 1H NMR (CDCl3, 400 MHZ, δ in ppm): ): 1.85 (m, 3H,						
CS(=O)(=O)c1cnc(NC2CCc3ccsc32)nc1N (centres unmarked) [compound 33, N2-(5,6-Dihydro-4H-cyclopenta[b]thiophen-6-yl)-5-methylsulfonylpyrimidine-2,4-diamine]		100	100	100		100	100	100		100	100	100	80	90	AMARE pre-emergence efficacy (herbicidal activity) (Amaranthus retroflexus [1]; Dosage 80 g/ha): 100%; LOLMU pre-emergence efficacy (herbicidal activity) (Lolium multiflorum): 100%; STEME pre-emergence efficacy (herbicidal activity) (Stellaria media [4]; Dosage 80 g/ha): 100%; VERPE pre-emergence efficacy (herbicidal activity) (Veronica persica [5]; Dosage 80 g/ha): 80%; post-emergence efficacy MATIN (Matricaria inodora [8]): 90%; chromatographic logP (logP (HCOOH)): 1.57
Nc1nc(NC2CCCc3sc(Cl)cc32)ncc1C(F)(F)F (racemic) [compound 22]		100	100	100	100	100	100	100		100				90	ABUTH pre-emergence efficacy (herbicidal activity) (Abutilon theophrasti [10]): 80%; LOLMU pre-emergence efficacy (herbicidal activity) (Lolium multiflorum): 100%; post-emergence efficacy ABUTH (Abutilon theophrasti [11]): 90%; post-emergence efficacy AMARE (Amaranthus retroflexus [12]; 320 g/ha): 100%; post-emergence efficacy ECHCG (Echinochloa crus-galli [13]): 90%; post-emergence efficacy POLCO (Polygonum convolvulus [14]): 90%; post-emergence efficacy STEME (Stellaria media [15]): 90%; post-emergence efficacy VERPE (Veronica persica [16]; 320 g/ha): 90%
Cc1cc2c(s1)CCC2Nc1ncc(S(=O)(=O)C(C)C)c(N)n1 (racemic) [compound 63]	100		100	100	100	100		100	solid; logP (HCOOH): 2.40; 1H NMR (CDCl3, 400 MHZ, δ in ppm): 1.35 (d, 6H, 6H		100	100	90	90	POLCO pre-emergence efficacy (herbicidal activity) (Polygonum convolvulus [3]; Dosage 80 g/ha): 20%; STEME pre-emergence efficacy (herbicidal activity) (Stellaria media [4]; Dosage 80 g/ha): 100%; post-emergence efficacy AMARE (Amaranthus retroflexus [12]; 80 g/ha): 10%; post-emergence efficacy AMARE (Amaranthus retroflexus [12]; 320 g/ha): 40%
Cc1cc2c(s1)CCCC2Nc1ncc(C(=O)C(F)(F)F)c(N)n1 (racemic) [compound 72]	90	100	100	100	100	100	100	100	oily; logP (HCOOH): 3.90; 1H NMR (CDCl3, 400 MHZ, δ in ppm): 1.85 (m, 3H, 3H of	80	100	100	80	100	ALOMY pre-emergence efficacy (herbicidal activity) (Alopecurus myosuroides; Dosage 80 g/ha): 80%; AMARE pre-emergence efficacy (herbicidal activity) (Amaranthus retroflexus [1]; Dosage 80 g/ha): 80%; VERPE pre-emergence efficacy (herbicidal activity) (Veronica persica [5]; Dosage 80 g/ha): 100%; post-emergence efficacy PHBPU (Ipomoea purpurea): 80%; post-emergence efficacy VERPE (Veronica persica [16]; 80 g/ha): 80%; post-emergence efficacy VERPE (Veronica persica [16]; 320 g/ha): 80%
Cc1nc(N[C@@H]2CCCc3sccc32)ncc1F [compound 223]									solid; logP (HCOOH): 2.57; 1H NMR (CDCl3, 400 MHZ, δ in ppm): 1.90 (m, 3H, 3H						
Cc1cc2c(o1)CC(C)(C)CC2Nc1ncc(S(C)(=O)=O)c(N)n1 (racemic) [compound 15]									oily; logP (HCOOH): 2.36; 1H NMR (CDCl3, 400 MHZ, δ in ppm): 1.05 (s, 3H, 3H of						
